From patent US20250019385A1, “SPIROCYCLIC ANNULATED 2-AMINO-3-CYANO THIOPHENES AND DERIVATIVES FOR THE TREATMENT OF CANCER” (Boehringer Ingelheim International GmbH, priority 2023, published 2025)
In brackets after ≈: the same amount, converted by molar mass. Read-outs that look alike come from different tables or passages of the source.

Legend:
Ba/F3 cells KRAS G12D = experiment: Ba/F3 proliferation assay (KRAS G12D); assay type: cell-based; settings: Mus musculus, BaF3, 72 h, AlamarBlue viability
Protocol: (§1) Ba/F3 cells are ordered from DSMZ (ACC300, Lot17) and grown in RPMI-1640 (ATCC 30-2001)+10% FCS+10 ng/mL IL-3 at 37° C. in 5% […] atmosphere. Plasmids containing KRASG12 mutants (i.e. […], G12C, G12V) are obtained from GeneScript. To generate KRASG12-dependent Ba/F3 models, Ba/F3 cells are transduced with retroviruses containing vectors that harbor KRASG12 isoforms. Platinum-E cells (Cell Biolabs) are used for retrovirus packaging. Retrovirus is added to Ba/F3 cells. To ensure infection, 4 μg/mL polybrene is added and cells are spinfected. Infection efficiency is confirmed by measuring GFP-positive cells using a cell analyzer. Cells with an infection efficiency of 10% to 20% are further cultivated and puromycin selection with 1 μg/mL is initiated. As a control, parental Ba/F3 cells are used to show selection status. Selection is considered successful when parental Ba/F3 cells cultures died. To evaluate the transforming potential of KRASG12 mutations, the growth medium is no longer supplemented with IL-3. Ba/F3 cells harboring the empty vector are used as a control. Approximately ten days before conducting the experiments, puromycin is left out.
(§2) For proliferation assays, Ba/F3 cells are seeded into 384-well plates at 1.5×1 (M cells/60 μL in growth media (RPMI-1640+10% FCS). Compounds (10 mM stock in DMSO) are added at logarithmic dose series using the ECHO acoustic liquid handler system (Beckman Coulter), normalizing for added DMSO and including DMSO controls. All compound treatments are performed in technical duplicates. For the TO time point measurement, untreated cells are analyzed at the time of compound addition. Treated cells are incubated for 72 h at 37° C. with 5% CO2 and cell viability is measured in the PerkinElmer Envision Multimode Reader using AlamarBlue™ (ThermoFisher) viability stain. Viability (stated as percent of control) is defined as relative fluorescence units RFU of each well divided by the RFU of cells in DMSO controls. IC50 values are determined from viability measurements by non-linear regression using a four-parameter model.

[1] = Solubility measurement (DMSO solution precipitation method); assay type: physicochemical; settings: aqueous buffer, kinetic from dmso stock
Protocol: A 10 mM DMSO stock solution of a test compound is used to determine its aq. solubility. The DMSO solution is diluted with an aq. medium (McIlvaine buffer with pH=4.5 or 6.8) to a final concentration of 250 μM. After 24 h of shaking at ambient temperature a potentially formed precipitate is removed by filtration. The concentration of the test compound in the filtrate is determined by LC-UV methods by calibrating the signal to the signal of a reference solution with complete dissolution of the test compound in acetonitrile/water (1:1) with known concentration.

[2] = target: KRAS (G12D)::SOS1 protein-protein interaction (Homo sapiens (Human), UniProt P01116, G12D); experiment: KRAS::SOS1 AlphaScreen binding assay (KRAS G12D); settings: GDP
Source text: This assay can be used to examine the potency with which compounds according to the invention binding to (mutated) KRAS inhibit the protein-protein interaction between SOS1 and (mutated) KRAS e.g. KRAS G12C, KRAS G12D. […] Low IC50 values in this assay setting are indicative of strong inhibition of protein-protein interaction between SOS1 and KRAS:
These assays measure the inhibitory effect of compounds on KRAS mutant protein-protein interactions using the Alpha Screen technology by Perkin Elmer.
The following (mutant) enzyme forms of KRAS and interacting proteins are used in these assays at the given concentrations:
KRAS (G12D) 1-169, N-terminal 6His-tag, C-terminal avi-tag (Xtal BioStructures, Inc.); final assay concentration 10 nM and SOS1 564-1049, N-terminal 229 GST-tag, TEV cleavage site (Viva Biotech Ltd); final assay concentration 5 nM;
Test compounds dissolved in DMSO are dispensed onto assay plates (Proxiplate 384 PLUS, white, PerkinElmer; 6008289) using an Access Labcyte Workstation with the Labcyte Echo 55x. For the chosen highest assay concentration of 100 μM, 150 nL of compound solution are transferred from a 10 mM DMSO compound stock solution. A series of eleven fivefold dilutions per compound are transferred to the assay plate, compound dilutions are tested in duplicates. DMSO are added as backfill to a total volume of 150 nL.
The assays run on a fully automated robotic system in a darkened room below 100 Lux. To 150 nl of compound dilution 10 μl of a mix including KRAS mutant protein, SOS1 (final assay concentrations see above) and GDP nucleotide (Sigma G7127; final assay concentration 10 μM) in assay buffer (1×PBS, 0.1% BSA, 0.05% Tween 20) are added into columns 1-24.
After 30 minutes incubation time 5 μl of Alpha Screen bead mix in assay buffer are added into columns 1-23. Bead mix consists of AlphaLISA Glutathione Acceptor Beads (PerkinElmer, Cat No AL109) and AlphaScreen Streptavidin Donor Beads (PerkinElmer Cat No 6760002) in assay buffer at a final assay concentration of 10 μg/mL each.
Plates are kept at room temperature in a darkened incubator. After an additional 60 minutes incubation time the signal is measured in a PerkinElmer Envision HTS Multilabel Reader using the AlphaScreen specs from PerkinElmer.
Each plate contains up to 16 wells of a negative control depending on the dilution procedure (platewise or serial) (DMSO instead of test compound; with KRAS mutant::SOS1 GOP mix and bead mix; column 23) and 16 wells of a positive control (DMSO instead of test compound; with KRAS mutant::SOS1 GOP mix w/o bead mix; column 24).
As internal control known inhibitors of KRAS mutant::SOS1 interaction can be measured on each compound plate.
IC50 values are calculated and analyzed with Boehringer Ingelheim's MEGALAB C50 application using a 4 parametric logistic model.
Tables of example compounds disclosed herein contain IC50 values determined using the above assays (see Table 43).

Ba/F3 cells KRAS G12C = experiment: Ba/F3 proliferation assay (KRAS G12C); assay type: cell-based; settings: Mus musculus, BaF3, 72 h, AlamarBlue viability
Protocol: as §1, §2

Ba/F3 cells KRAS G12V = experiment: Ba/F3 proliferation assay (KRAS G12V); assay type: cell-based; settings: Mus musculus, BaF3, 72 h, AlamarBlue viability
Protocol: as §1, §2

[3] = McIlvaine buffer pH 4.5, 24 h, read-out: solubility pH 4.5
[4] = McIlvaine buffer pH 6.8, 24 h, read-out: solubility pH 6.8

Sequence of KRAS (G12D)::SOS1 protein-protein interaction (P01116 other isoform, or with tags, fused parts or gaps G12D): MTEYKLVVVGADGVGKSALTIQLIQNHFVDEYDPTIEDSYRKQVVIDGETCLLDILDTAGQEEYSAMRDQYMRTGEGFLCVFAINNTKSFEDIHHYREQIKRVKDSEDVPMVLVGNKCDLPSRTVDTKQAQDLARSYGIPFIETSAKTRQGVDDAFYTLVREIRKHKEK

SMILES | IC50 (Ba/F3 cells KRAS G12D) | solubility at 24 h [1, 3] | solubility at 24 h [1, 4] | IC50 [2] | IC50 (Ba/F3 cells KRAS G12C) | IC50 (Ba/F3 cells KRAS G12V)
C[C@H](Oc1nc(-c2onc3c2CCC[C@@]32CCCc3sc(N)c(C#N)c32)nc2c1n(C)c(=O)n2[C@@H]1CCCOC1)[C@@H]1CCCN1C [I-12] | 12 nM | > 155 µg/mL | > 142 µg/mL | 1 nM | 4 nM | 2 nM
C[C@H](Oc1nc(-c2onc3c2CCC[C@@]32CCCc3sc(N)c(C#N)c32)nc2c1[nH]c(=O)n2[C@@H]1CCCOC1)[C@@H]1CCCN1C [I-13] | 141 nM | > 148 µg/mL | > 131 µg/mL | 2 nM | 38 nM | 16 nM
CO[C@@H]1C[C@@H]([C@H](C)Oc2nc(-c3onc4c3CCC[C@@]43CCCc4sc(N)c(C#N)c43)nc3c2n(C)c(=O)n3[C@@H]2CCCOC2)N(C)C1 [I-14] | 10 nM | > 163 µg/mL | < 1 µg/mL | 1 nM | 5 nM | 2 nM
C[C@H](Oc1nc(-c2onc3c2CCC[C@@]32CCCc3sc(N)c(C#N)c32)nc2c1n(C)c(=O)n2C12COC(C1)C2)[C@@H]1CCCN1C [I-15] | 51 nM | > 150 µg/mL | > 153 µg/mL | 2 nM | 16 nM | 11 nM
CO[C@H]1C[C@H](n2c(=O)n(C)c3c(O[C@@H](C)[C@@H]4CCCN4C)nc(-c4onc5c4CCC[C@@]54CCCc5sc(N)c(C#N)c54)nc32)C1 [I-16] | 488 nM | > 154 µg/mL | > 138 µg/mL | 12 nM | 288 nM | 226 nM
C[C@H](Oc1nc(-c2onc3c2CCC[C@@]32CCCc3sc(N)c(C#N)c32)nc2c1n(C)c(=O)n2[C@H]1CC2CCC1O2)[C@@H]1CCCN1C (stereo partly drawn) [I-17] | 47 nM | > 155 µg/mL | > 148 µg/mL | 2 nM | 37 nM | 20 nM
C[C@H](Oc1nc(-c2onc3c2CCC[C@@]32CCCc3sc(N)c(C#N)c32)nc2c1n(C)c(=O)n2[C@@H]1CC2CCC1O2)[C@@H]1CCCN1C (stereo partly drawn) [I-18] | 182 nM | > 151 µg/mL | 97 µg/mL (≈ 148 µM) | 8 nM | 109 nM | 69 nM
C[C@H](Oc1nc(-c2onc3c2CCC[C@@]32CCCc3sc(N)c(C#N)c32)nc2c1n(C)c(=O)n2[C@H]1CCC[C@@H]1O)[C@@H]1CCCN1C [I-19] | 470 nM | > 152 µg/mL | > 146 µg/mL | 3 nM | 406 nM | 243 nM
C[C@H](Oc1nc(-c2onc3c2CCC[C@@]32CCCc3sc(N)c(C#N)c32)nc2c1n(C)c(=O)n2[C@@H]1CCOC1)[C@@H]1CCCN1C [I-20] | 9 nM | > 151 µg/mL | > 154 µg/mL | 1 nM | 4 nM | 2 nM
CCn1c(=O)n([C@@H]2CCOC2)c2nc(-c3onc4c3CCC[C@@]43CCCc4sc(N)c(C#N)c43)nc(O[C@@H](C)[C@@H]3CCCN3C)c21 [I-21] | 21 nM | > 157 µg/mL | > 144 µg/mL | 1 nM | 8 nM | 5 nM
C[C@H](Oc1nc(-c2onc3c2CCC[C@@]32CCCc3sc(N)c(C#N)c32)nc2c1n(C)c(=O)n2[C@@H]1CCOC1)[C@@H]1C[C@@H](F)CN1C [I-22] | 22 nM | > 154 µg/mL | 12 µg/mL (≈ 18.5 µM) | 2 nM | 10 nM | 4 nM
CO[C@H]1CCN(C)[C@@H]1[C@H](C)Oc1nc(-c2onc3c2CCC[C@@]32CCCc3sc(N)c(C#N)c32)nc2c1n(C)c(=O)n2[C@@H]1CCOC1 [I-23] | 10 nM | > 157 µg/mL | 36 µg/mL (≈ 54.5 µM) | 1 nM | 4 nM | 2 nM
C[C@H](Oc1nc(-c2onc3c2CCC[C@@]32CCCc3sc(N)c(C#N)c32)nc2c1n(C)c(=O)n2C1COC1)[C@@H]1CCCN1C [I-24] | 134 nM | > 155 µg/mL | > 140 µg/mL | 3 nM | 59 nM | 26 nM
C[C@H](Oc1nc(-c2onc3c2CCC[C@@]32CCCc3sc(N)c(C#N)c32)nc2c1n(C)c(=O)n2[C@@H]1CCOC1)C12CCCN1CCC2 [I-25] | 25 nM | > 155 µg/mL | > 154 µg/mL | 2 nM | 12 nM | 7 nM
C[C@H](Oc1nc(-c2onc3c2CCC[C@@]32CCCc3sc(N)c(C#N)c32)nc2c1n(C)c(=O)n2[C@@H]1CCOC1)[C@@H]1CC[C@H](C)N1C [I-26] | 5 nM | > 158 µg/mL | 127 µg/mL (≈ 197 µM) | 1 nM | 3 nM | 2 nM
